From US6649421B1, “Antibodies against phoshorylated VASP (vasodilator-stimulated phosphoprotein), hybridoma cells for their preparation, and their use” (Vasopharm Biotech GmbH, priority 1997, dated 2003)

System: VASP phosphorylation in rat thrombocytes
Experiment: Western blot of VASP phosphorylation in rat thrombocytes
Assay type: cell-based
Details: 5 min incubation
Description: Rat thrombocytes (0.7×10^9 cell/ml) were incubated for 5 min with 100 μM sodium nitroprusside (SNP), with 10 μM prostaglandin E1(PgE1) or without either of these additions. The extracts of these rat thrombocytes were analyzed by Western blotting. […] Similar results are also obtained using mouse thrombocytes.

**Q.** With `CCCCC[C@H](O)/C=C/[C@H]1[C@H](O)CC(=O)[C@@H]1CCCCCCC(=O)O` [PgE1, prostaglandin E1] as the compound, how does the “Phosphorylation-dependent shift of VASP from 46 kDa to 50 kDa (serine 157 phosphorylation)” value read?
**A.** Its value is “also took place in rat thrombocytes”.

**Q.** What about the “Phosphorylation-dependent signal given by the 16C2 antibody (serine 239 phosphorylation)” value of the same compound?
**A.** The value was “also took place in rat thrombocytes”.
